# Data reported in paper PMC10096453, “One-Pot Synthesis and Evaluation of Antioxidative Stress and Anticancer Properties of an Active Chromone Derivative” (Molecules, 2023).
# Like-named read-outs stand apart in the source and are kept apart here.
# How the values were obtained:
# [1] = MTT cytotoxicity assay, HEK293 cells; type: cell-based; conditions: human, HEK293 cells, 100 μM; for viability at 24 h, 100 µM: read-out: % Viability ± SD (at 100 μM) HEK293 24 h; for viability at 48 h, 100 µM: read-out: % Viability ± SD (at 100 μM) HEK293 48 h
# Protocol: (§1) HEK293, HACAT, and HeLa cells were grown in modified Eagles’ minimum essential medium (EMEM, Gibco) with 10% fetal bovine serum (FBS, Gibco), 1% of 100 U/mL streptomycin and 100 U/mL penicillin (Gibco). Cells were seeded in culture flasks and maintained in an incubator at 37 °C in a humidified atmosphere with 5% CO2. After reaching 80–90% of confluence, cells were detached by incubation with 0.25% trypsin-0.2% EDTA (Gibco) for 5 min and plated for experiments.
# (§2) This study examined cell cultures of HEK293, HACAT, and HeLa cells. The cytotoxicity of the test samples was carried out by the MTT (3-(4,5-dimethylthiazol-2-yl)-2,5-diphenyltetrazolium bromide) assay. The cells were seeded in 96-well microliter plates (2.0 × 10^4 cells/well). Stock solutions of the test compounds were prepared in DMSO. After 24 h, cells were treated with different concentrations of samples and diluted with media to obtain the final desired concentration. The treated cells were then incubated at 37 °C and 5% CO2 for 24 and 48 h. After incubation, the medium was replaced with 0.05% w/v of MTT solution in PBS and further incubated for 3 h. The solution was then discarded and DMSO was added to dissolve the formed formazan crystals. Each well’s absorbance (A) was measured at 570 nm using a microplate reader (FLUOstar Omega^TM, BMG Labtech, Ortenberg, Germany). All experiments were carried out in triplicate and repeated for at least three experiments.
# [2] = FRAP (ferric reducing antioxidant power) assay; type: biochemical; conditions: Trolox equivalent
# Description: (§3) Three in vitro antioxidant assays (DPPH, FRAP, and ABTS) were utilized to evaluate the antioxidant property of the synthesized compounds. The DPPH (α, α-diphenyl-β-picrylhydrazyl) assay is the well-known approach to determine antioxidant activity using a stable free radical DPPH, measure the absorbance change, and calculate the absorbance change in the percentage of scavenging activity. […] For example, the ferric-tripyridyltriazine (Fe^3+-TPTZ, colorless) complex is reduced to ferrous tripyridyltriazine (Fe^2+-TPTZ) at low pH and introduces a blue color with maximum absorption at 593 nm. The change in absorbance is related to antioxidant activity. However, a significant limitation of these in vitro tests is the non-physiological measurement conditions (no enzymatic condition and no transition metal ion chelating activity); therefore, the results obtained may not reflect the antioxidant activity of the source material under the biological conditions that exist in humans and animals. The ABTS assay involves a more drastic radical that is chemically produced. The use of ABTS for antioxidant activity determination of hydrophilic and lipophilic pure compounds has attracted interest due to its solubility in organic and aqueous media and stability in a wide pH range [31].
# The FRAP assay is a method for assessing antioxidant power. Briefly, the FRAP reagent was prepared from acetate buffer pH 3.6, 10 mM TPTZ solution in 40 mM HCl and 20 mM FeCl3.6 H2O in relative proportions of 10:1:1, v/v, respectively. The FRAP reagent was freshly prepared daily. A solution of 5 μL of the sample (3–300 μM, approx.) was mixed with 180 μL of the FRAP reagent in a 96-well plate. The mixture was shaken in the dark for 10 min and incubated at 37 °C for 20 min, and the absorbance was determined at 593 nm. The solution without the sample was used as a blank. All determinations were made in triplicate. Trolox was used as a standard antioxidant and plot the calibration curve between absorbance and concentration. Quercetin was applied as the reference compound. The FRAP values were calculated by comparing the absorbance change in the test sample and represented in μM of Trolox equivalent per μM of sample.
# [3] = MTT cytotoxicity assay, HACAT cells; type: cell-based; conditions: human; for viability at 24 h, 100 µM: read-out: % Viability ± SD (at 100 μM) HACAT 24 h; for viability at 48 h, 100 µM: read-out: % Viability ± SD (at 100 μM) HACAT 48 h
# Protocol: as §1, §2
# [4] = ABTS radical cation scavenging assay; type: biochemical
# Description: as §3
# The ABTS assay was prepared by reaction of 5 mL of a 7 mM aqueous ABTS (2,2′-azino-bis (3-ethylbenzthiazoline-6-sulphonic acid) solution and 2.45 mM potassium persulfate solution (K2S2O8). After preparation and storage in the dark for 16 h, the radical cation solution was further diluted in ethanol to absorb about 0.7 at 734 nm. Trolox and test sample solutions were prepared in stock solution with DMSO and diluted with ethanol. A solution of 100 μL of the sample was mixed with 100 μL of the ABTS reagent in a 96-well plate. The mixture was shaken in a dark place for 10 min and incubated at 37 °C for 20 min, and the absorbance was determined at 734 nm. Absorbance determinations were recorded immediately and not more than 1 h after adding the reagent. The solution without the sample was used as a blank. All the determinations were made in triplicate. The sample’s scavenging percentage was calculated from this equation: scavenging percentage = (Absorbance control − Absorbance sample) × 100/Absorbance control. EC50 values were calculated from the relationship curve of %scavenging versus sample concentration.
# HeLa cell = test: MTT anticancer activity assay, HeLa cells; type: cell-based
# Protocol: as §1, §2
# [5] = DPPH radical scavenging assay; type: biochemical; design: DPPH517nm % SA ± SD: dose or concentration left out as unconfirmed; conditions: for DPPH517nm % SA ± SD: mean of three measurements; for EC50: read-out: DPPH517nm EC50 ± SD
# Description: as §3
# The DPPH method was followed and modified from a previous study. Trolox was used as a reference. The DPPH stock solution at a concentration of 0.625 mM was prepared in 50% ethanol and kept at 4 °C in the dark. On the day of the experiment, 0.208 mM fresh DPPH working solution was freshly prepared by further diluting with 50% ethanol. […] Each reaction was carried out in a 96-well plate, and 100 μL of test preparation and DPPH solution were added. The 96-well plate was then shaken well for 10 min and kept in the dark at room temperature for 20 min, and the absorbance was recorded at 515–517 nm. According to the method described, delocalization also results in a deep violet color and is quantified as a percentage of scavenging activity. % scavenging activity (SA) = 100 × (Asample − Ablank)/(Acontrol − Ablank)(1) where Acontrol and Asample are the absorbances of the test DPPH without and with a sample, respectively. Ablank is the absorbance of the solvent used. The EC50 values were calculated from the relationship curve of %SA versus sample concentration. The experiment was carried out at least in triplicate.
# [6] = Homo sapiens, 24 h, read-out: % Viability ± SD (at 100 μM) HeLa 24 h
# [7] = Homo sapiens, 48 h, read-out: % Viability ± SD (at 100 μM) HeLa 48 h
SMILES,"viability at 24 h, 100 µM [1]","viability at 48 h, 100 µM [1]",FRAP593nm Value ± SD (TE) [2],"viability at 24 h, 100 µM [3]","viability at 48 h, 100 µM [3]",melting point,ABTS734nm % Scavenging at 500 µM [4],viability at 100 µM (HeLa cell; [6]),viability at 100 µM (HeLa cell; [7]),DPPH517nm % SA ± SD [5],"Anticancer activity on cervical cancer cells (HeLa cell; HeLa, 24 h)","IC50 (HeLa cell; Homo sapiens, HeLa, 24 h)",IC50 (HeLa cell; 24 h),EC50 ([4]; read-out: ABTS734nm EC50 ± SD),EC50 [5]
"COc1ccc2oc(-c3ccccc3)c(C(=O)c3ccccc3)c(=O)c2c1 [2c, 3-Benzoyl-6-methoxy-2-phenyl-4H-chromen-4-one]",72.5 ± 6.46%,74 ± 1.32%,0.07 ± 0.028 µM Trolox/1 µM of Synthesized Compounds,62.3 ± 3.04%,60.4 ± 0.73%,194 to 196 °C,13.16 ± 0.78%,60.67 ± 0.57%,82.12 ± 0.11%,5.88 ± 2.65%,–,–,–,–,–
"COc1cccc(C(=O)c2c(-c3cccc(OC)c3)oc3cc(O)ccc3c2=O)c1 [2g, 7-Hydroxy-3-(3-methoxybenzoyl)-2-(3-methoxyphenyl)-4H-chromen-4-one]",79.1 ± 0.9%,76.7 ± 1.16%,0.02 ± 0.008 µM Trolox/1 µM of Synthesized Compounds,81.5 ± 5.17%,78.4 ± 5.44%,253 to 254 °C,11.52 ± 3.56%,–,46.3 ± 1.14%,18.32 ± 0.40%,contained anticancer activity,172.7 ± 1.66 µM,–,–,–
"O=C(c1ccccc1)c1c(-c2ccccc2)oc2ccc(O)cc2c1=O [2b, 3-Benzoyl-6-hydroxy-2-phenyl-4H-chromen-4-one]",105 ± 2.7%,72.4 ± 8.55%,0.02 ± 0.003 µM Trolox/1 µM of Synthesized Compounds,75.7 ± 3.38%,74.9 ± 1.55%,201 to 203.5 °C,35.99 ± 1.32%,40.9 ± 0.41%,24.8 ± 1.05%,5.32 ± 2.43%,contained anticancer activity,95.7 µM,95.7 ± 1.16 µM,–,–
"COc1ccc(C(=O)c2c(-c3ccc(OC)cc3)oc3cc(O)ccc3c2=O)cc1 [2h, 7-hydroxy-3-(4-methoxybenzoyl)-2-(4-methoxyphenyl)-4H-chromen-4-one]",77.2 ± 1.93%,73.1 ± 0.79%,0.06 ± 0.024 µM Trolox/1 µM of Synthesized Compounds,75.2 ± 7.39%,71.8 ± 3.27%,300 to 301 °C,6.55 ± 4.19%,84.9 ± 2.55%,64.2 ± 0.76%,12.57 ± 6.18%,–,–,–,–,–
"CC(=O)c1ccc(O)cc1OC(=O)c1ccco1 [compound 4, 2-Acetyl-5-hydroxyphenyl furan-2-carboxylate]",97.99 ± 0.4%,108 ± 2.84%,0.00 ± 0.001 µM Trolox/1 µM of Synthesized Compounds,85.7 ± 5.6%,72.2 ± 1.81%,122 to 124 °C,14.51 ± 1.94%,86.1 ± 3.24%,91.07 ± 0.65%,0.99 ± 0.71%,–,–,–,–,–
"O=C(c1ccccc1)c1c(-c2ccccc2)oc2cc(O)cc(O)c2c1=O [2e, 3-Benzoyl-5,7-dihydroxy-2-phenyl-4H-chromen-4-one]",99.7 ± 2.41%,93.9 ± 5.34%,0.02 ± 0.002 µM Trolox/1 µM of Synthesized Compounds,79.7 ± 3.26%,69.1 ± 3.07%,196 to 197 °C,80.67 ± 0.30%,76 ± 1.52%,26.5 ± 1.13%,46.30 ± 3.61%,contained anticancer activity,108 ± 4.04 µM,–,158 ± 10.9 µM,> 750 µM
"O=C(c1ccccc1)c1c(-c2ccccc2)oc2cc(O)ccc2c1=O [2d, 3-Benzoyl-7-hydroxy-2-phenyl-4H-chromen-4-one]",88.7 ± 1.33%,87.8 ± 1.8%,0.02 ± 0.003 µM Trolox/1 µM of Synthesized Compounds,77.8 ± 6.93%,72.5 ± 3.41%,270 to 271 °C,27.59 ± 2.46%,85.17 ± 0.79%,42.36 ± 0.09%,15.85 ± 4.61%,contained anticancer activity,166.9 ± 0.49 µM,–,–,> 750 µM
